Measurements as given in ChEMBL document CHEMBL1201862, “PubChem BioAssay data set” (2004).
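Briefly, cells in 96-well plates were exposed to five compound concentrations for 48 h, and endpoints were estimated by linear interpolation. GI50 = concentration required for 50% inhibition of growth.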 Activity calls are given as the source filed them. Rule as the data show it: active = GI50 up to about 1.1 µM and inactive = higher.

Legend:
Assay in all cases: inhibition of tumour cell growth, NCI panel, 48 h
CCRF-CEM = system: CCRF-CEM
K562 = system: K562
ACHN = system: ACHN
UO-31 = system: UO-31
HCC 2998 = system: HCC 2998
SNB-78 = system: SNB-78
NCI-H226 = system: NCI-H226
DMS-273 = system: DMS-273
TK-10 = system: TK-10
UACC-62 = system: UACC-62
Malme-3M = system: Malme-3M
HL-60 = system: HL-60
A498 = system: A498
SNB-19 = system: SNB-19
NCI-H460 = system: NCI-H460
SK-MEL-2 = system: SK-MEL-2

**Q.** How did the GI50 (CCRF-CEM) turn out when `Cc1c(C(=O)/C=C/c2ccco2)[n+]([O-])c2ccccc2[n+]1[O-]` was run?
**A.** 36.1 µM (inactive)

**Q.** And the GI50 (K562)?
**A.** 56.4 µM (inactive)

**Q.** What about the GI50 (ACHN) of the same compound?
**A.** > 100 µM (inactive)

**Q.** What about the GI50 (UO-31) of the same compound?
**A.** > 100 µM (inactive)

**Q.** And the GI50 (HCC 2998)?
**A.** > 100 µM (inactive)

**Q.** What about the GI50 (SNB-78) of the same compound?
**A.** > 100 µM (inactive)

**Q.** What about the GI50 (NCI-H226) of the same compound?
**A.** > 100 µM (inactive)

**Q.** And the GI50 (DMS-273)?
**A.** > 100 µM (inactive)

**Q.** And the GI50 (TK-10)?
**A.** > 100 µM (inactive)

**Q.** And the GI50 (UACC-62)?
**A.** > 100 µM (inactive)

**Q.** What about the GI50 (Malme-3M) of the same compound?
**A.** > 100 µM (inactive)

**Q.** And the GI50 (HL-60)?
**A.** 42 µM (inactive)

**Q.** What about the GI50 (A498) of the same compound?
**A.** > 100 µM (inactive)

**Q.** And the GI50 (SNB-19)?
**A.** > 100 µM (inactive)

**Q.** And the GI50 (NCI-H460)?
**A.** > 100 µM (inactive)

**Q.** Which results are given for `O=[N+]([O-])c1cccc(C2=NOC3C4CCC(C4)C23)c1` (centres undefined)?
**A.** GI50 (ACHN): > 100 µM (inactive); GI50 (UO-31): > 100 µM (inactive); GI50 (HCC 2998): > 100 µM (inactive); GI50 (NCI-H226): > 100 µM (inactive); GI50 (SK-MEL-2): > 100 µM (inactive); GI50 (DMS-273): > 100 µM (inactive); GI50 (TK-10): > 100 µM (inactive); GI50 (Malme-3M): > 100 µM (inactive); GI50 (A498): > 100 µM (inactive); GI50 (NCI-H460): > 100 µM (inactive)

**Q.** Which results are given for `Oc1cc(-c2ccccn2)nc2cccc(F)c12`?
**A.** GI50 (CCRF-CEM): > 100 µM (inactive); GI50 (K562): > 100 µM (inactive); GI50 (ACHN): > 100 µM (inactive); GI50 (UO-31): > 100 µM (inactive); GI50 (HCC 2998): 0.641 µM (active); GI50 (SNB-78): > 100 µM (inactive); GI50 (NCI-H226): > 100 µM (inactive); GI50 (TK-10): > 100 µM (inactive); GI50 (UACC-62): 95.3 µM (inactive); GI50 (HL-60): > 100 µM (inactive); GI50 (SNB-19): > 100 µM (inactive); GI50 (NCI-H460): > 100 µM (inactive)

**Q.** Which GI50 (CCRF-CEM) does the source give for `CCOc1ccc2c(c1)[n+]([O-])c(S(=O)(=O)c1ccc(C)cc1)c(N)[n+]2[O-]` here?
**A.** > 100 µM (inactive)

**Q.** What about the GI50 (K562) of the same compound?
**A.** > 100 µM (inactive)

**Q.** And the GI50 (ACHN)?
**A.** > 100 µM (inactive)

**Q.** And the GI50 (UO-31)?
**A.** > 100 µM (inactive)

**Q.** And the GI50 (HCC 2998)?
**A.** > 100 µM (inactive)

**Q.** And the GI50 (SNB-78)?
**A.** > 100 µM (inactive)

**Q.** And the GI50 (NCI-H226)?
**A.** > 100 µM (inactive)

**Q.** What about the GI50 (SK-MEL-2) of the same compound?
**A.** > 100 µM (inactive)

**Q.** What about the GI50 (TK-10) of the same compound?
**A.** > 100 µM (inactive)

**Q.** What about the GI50 (UACC-62) of the same compound?
**A.** > 100 µM (inactive)

**Q.** What about the GI50 (Malme-3M) of the same compound?
**A.** > 100 µM (inactive)

**Q.** What about the GI50 (HL-60) of the same compound?
**A.** > 100 µM (inactive)

**Q.** And the GI50 (A498)?
**A.** > 100 µM (inactive)

**Q.** What about the GI50 (SNB-19) of the same compound?
**A.** > 100 µM (inactive)

**Q.** What about the GI50 (NCI-H460) of the same compound?
**A.** > 100 µM (inactive)

**Q.** `C#CCN(N=O)C(=O)NC(CCCCNC(=O)OCc1ccccc1)C(=O)OCc1ccccc1` (centres undefined) was tested. Which GI50 (CCRF-CEM) did it give?
**A.** 17.5 µM (inactive)

**Q.** And the GI50 (K562)?
**A.** 20.5 µM (inactive)

**Q.** What about the GI50 (ACHN) of the same compound?
**A.** 55.5 µM (inactive)

**Q.** And the GI50 (UO-31)?
**A.** 30.8 µM (inactive)

**Q.** And the GI50 (HCC 2998)?
**A.** 31.5 µM (inactive)

**Q.** What about the GI50 (SNB-78) of the same compound?
**A.** 34.1 µM (inactive)

**Q.** And the GI50 (SK-MEL-2)?
**A.** 37.8 µM (inactive)

**Q.** And the GI50 (DMS-273)?
**A.** 43.9 µM (inactive)

**Q.** What about the GI50 (TK-10) of the same compound?
**A.** 27.7 µM (inactive)

**Q.** What about the GI50 (UACC-62) of the same compound?
**A.** 32.7 µM (inactive)

**Q.** What about the GI50 (Malme-3M) of the same compound?
**A.** 28.2 µM (inactive)

**Q.** And the GI50 (HL-60)?
**A.** 17.3 µM (inactive)

**Q.** And the GI50 (A498)?
**A.** > 100 µM (inactive)

**Q.** And the GI50 (SNB-19)?
**A.** 47.2 µM (inactive)

**Q.** And the GI50 (NCI-H460)?
**A.** 61 µM (inactive)

**Q.** `COc1ccc2nc(-c3ccc(OCc4ccccc4)cc3)ccc2c1` was tested. Which GI50 (CCRF-CEM) did it give?
**A.** > 100 µM (inactive)

**Q.** And the GI50 (K562)?
**A.** > 100 µM (inactive)

**Q.** What about the GI50 (ACHN) of the same compound?
**A.** > 100 µM (inactive)

**Q.** And the GI50 (UO-31)?
**A.** > 100 µM (inactive)

**Q.** What about the GI50 (HCC 2998) of the same compound?
**A.** > 100 µM (inactive)

**Q.** What about the GI50 (SNB-78) of the same compound?
**A.** > 100 µM (inactive)

**Q.** And the GI50 (NCI-H226)?
**A.** > 100 µM (inactive)

**Q.** And the GI50 (TK-10)?
**A.** > 100 µM (inactive)

**Q.** What about the GI50 (UACC-62) of the same compound?
**A.** > 100 µM (inactive)

**Q.** What about the GI50 (Malme-3M) of the same compound?
**A.** > 100 µM (inactive)

**Q.** And the GI50 (HL-60)?
**A.** > 100 µM (inactive)

**Q.** What about the GI50 (SNB-19) of the same compound?
**A.** > 100 µM (inactive)

**Q.** And the GI50 (NCI-H460)?
**A.** > 100 µM (inactive)

**Q.** `Cc1cc(N(CCC#N)CCC#N)ccc1/C=C1N=C(/C=C/c2ccccc2)N(c2ccc(S(N)(=O)=O)cc2)C\1=O` was tested. Which GI50 (CCRF-CEM) did it give?
**A.** > 100 µM (inactive)

**Q.** What about the GI50 (K562) of the same compound?
**A.** > 100 µM (inactive)

**Q.** What about the GI50 (ACHN) of the same compound?
**A.** > 100 µM (inactive)

**Q.** And the GI50 (UO-31)?
**A.** > 100 µM (inactive)

**Q.** And the GI50 (SNB-78)?
**A.** > 100 µM (inactive)

**Q.** What about the GI50 (NCI-H226) of the same compound?
**A.** > 100 µM (inactive)

**Q.** What about the GI50 (SK-MEL-2) of the same compound?
**A.** > 100 µM (inactive)

**Q.** What about the GI50 (TK-10) of the same compound?
**A.** > 100 µM (inactive)

**Q.** And the GI50 (UACC-62)?
**A.** > 100 µM (inactive)

**Q.** And the GI50 (Malme-3M)?
**A.** > 100 µM (inactive)

**Q.** And the GI50 (HL-60)?
**A.** > 100 µM (inactive)

**Q.** What about the GI50 (A498) of the same compound?
**A.** > 100 µM (inactive)

**Q.** And the GI50 (SNB-19)?
**A.** > 100 µM (inactive)

**Q.** What about the GI50 (NCI-H460) of the same compound?
**A.** > 100 µM (inactive)
